Measured values from patent publication US20230248000A1, “ANTIMICROBIAL COMPOUNDS AND METHODS OF USE” (Aequor, Inc., priority 2016, published 2023).
“And” between values parts separate entries of the source, which are not always exact repeats. Equal entries are not always repeated.

Legend:
Format in all cases: cell-based, Staphylococcus aureus
[1] = system: S. aureus ATCC 25923; assay: Biofilm removal, MBEC Assay (ASTM E2799-12)
[2] = system: S. aureus ATCC 25923; assay: Biofilm prevention (inhibition), 96-well microplate assay
[3] = system: S. aureus ATCC 25923; assay: Minimum Inhibitory Concentration (MIC) on planktonic bacteria, CLSI M07-A9 modified for 96 well plates

## CCCCOP(=O)(OC)OCCCC [Dibutyl methyl phosphate]
[1]
  Biofilm Removal: 99.99%
  MBEC Qualitative: >2.3%
[2]
  Biofilm Prevention: 99.99%
[3]
  MIC: 0.24%

## CCCCOP(=O)(O)OCCCC [Dibutyl phosphate]
[1]
  Biofilm Removal: 99.99%
  MBEC Qualitative: 0.24%
[2]
  Biofilm Prevention: 99.99%
[3]
  MIC: 0.24% and 0.01%
